Measurements reported in patent US6143774A, “Imidazole n-benzyldioxol derivatives, method for preparing same, resulting intermediates, pharmaceutical compositions and use of said derivatives as endothelin antagonists” (Hoechst Marion Roussel, priority 1995, dated 2000).

How the values were obtained:
[1] = test system: endothelin (ET), isolated thoracic aorta of a rat; experiment: Antagonistic activity of endothelin on the isolated aorta of a rat; parameters: species or system Wistar male rats
Experimental: The thoracic aorta is removed from Wistar male rats (approximately 350 g) (IFFA CREDO France) anaesthetized with pentobarbital (60 mg/kg IP) then exsanguinated. The aorta is rapidly put into a physiological solution at ambient temperature. A 1 to 2 mm ring without endothelium is put in an isolated organ bath containing 5 ml of the following physiological solution (composition in mM NaCl: 118.4; KCl: 4.7; MgSO4, 7H2 O: 1.2; CaCl2, 2H2 O: 2.5; KH2 PO4 : 1.2; NaHCO3 : 25; glucose: 10.1) the medium is maintained at 37° C. and oxygenated with a mixture of oxygen (95%) carbon dioxide (5%). The initial pressure imposed is 2 g, the rings are left at rest for 60 to 90 minutes. The reference contraction is caused by the addition of 2 successive concentrations of 3 μM of noradrenalin, left in contact for 15 minutes, followed by 3 washings, the second response serves as the reference contraction. After return to the base line, incubation is carried out for 15 minutes with a concentration of the product to be tested or the solvent then cumulative concentrations of endothelin are added every 5 minutes (concentrations of […]). The inhibition induced by the product is calculated as a % of the reduction relative to the reactivity of the control curves over 2 points: concentration of 10 and 30 nM of endothelin.

[2] = test system: endothelin (ET1); experiment: Test for antagonistic activity of endothelin in the demedullated rat; type: in vivo, male Sprague Dawley rats
Experimental: 3) Test for Antagonistic Activity of Endothelin in the Demedullated Rat
Male Sprague Dawley rats (250 to 350 g) are anaesthetized (sodium pentobarbital 60 mg/kg injected by intraperitoneal route). The animal is placed under assisted respiration and a bilateral section of the vagus nerves is carried out. The rat is then demedullated.
The average arterial pressure is recorded with a heparin catheter (PE50) introduced into the carotid of the animal, and connected via a pressure sensor and an amplifier to a recorder (Gould, Pressure Processor). A catheter is introduced into the pudendal vein in order to allow injection of the molecules to be studied. After a stabilization period (about 15 minutes), the product or the solvent is injected 10 minutes before a range of increasing doses of endothelin which are injected every 2 minutes (0.1-0.3-1-3-10 μg/kg).
The anatagonistic activity of the products is estimated by the percentage inhibition in the increase in pressure induced by the endothelin at doses of 3 and 10 μg/kg.

[3] = target: T1, Endothelin B receptor (Rattus norvegicus, UniProt P21451); experiment: Study of the affinity for the endothelin B receptor (125I endothelin displacement, rat cortex plus cerebellum membranes); type: binding; conditions: rat rear cortex plus cerebellum membranes, 25° C., 60 minutes
T1 construct: A membrane preparation is prepared from the rear cortex plus the cerebellum of a rat; from tissue; host or cells: rat rear cortex plus cerebellum (membrane preparation)
T1 sequence (P21451 27-442): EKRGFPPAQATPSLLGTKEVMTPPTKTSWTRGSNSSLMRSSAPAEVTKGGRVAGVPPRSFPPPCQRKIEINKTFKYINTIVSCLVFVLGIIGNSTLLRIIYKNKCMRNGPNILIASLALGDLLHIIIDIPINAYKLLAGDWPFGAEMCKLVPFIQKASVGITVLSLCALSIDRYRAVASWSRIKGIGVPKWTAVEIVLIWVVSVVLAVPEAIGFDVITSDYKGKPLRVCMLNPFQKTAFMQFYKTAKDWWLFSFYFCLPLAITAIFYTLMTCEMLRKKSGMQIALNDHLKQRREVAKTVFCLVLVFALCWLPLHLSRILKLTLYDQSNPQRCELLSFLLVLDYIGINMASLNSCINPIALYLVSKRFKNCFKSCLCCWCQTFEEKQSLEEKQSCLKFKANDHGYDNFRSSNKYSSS
Experimental: 2) Study of the Affinity for the Endothelin B Receptor
A membrane preparation is prepared from the rear cortex plus the cerebellum of a rat. The tissue is ground up in a POLYTRON in a 50 mM Tris buffer pH=7.4.
(§1) After 30 minutes at 25° C. (W.B.) the homogenate is centrifuged at 30,000 g for 15 minutes (2 centrifugations with intermediate take-up in the Tris buffer pH 7.4).
(§2) The pellets are suspended in an incubation buffer (25 mM Tris, 5 microg/ml pepstatin A, 3 microg/ml aprotinin, 0.1 mM PMSF, 3 mM EDTA, 1 mM EGTA pH 7.4).
(§3) 2 ml aliquoted fractions are distributed in hemolysis tubes and ^125 I endothelin (approx. 5,000 dpm/tube) and the product to be studied are added. (The product is first tested at 3×10^-5 M three times). When the tested product displaces more than 50% of the radioactivity specifically bound to the receptor, it is tested again according to a range of 7 concentrations in order to determine the concentration which inhibits by 50% the radioactivity specifically bound to the receptor. In this way the 50% inhibitory concentration is determined.
(§4) The non-specific bond is determined by the addition of endothelin at 10^-6 M (three times). After incubation at 25° C. for 60 minutes, replacing in a water bath at 0° C. for 5 minutes, filtration under reduced pressure and rinsing with Tris buffer pH 7.4, the radioactivity is counted in the presence of scintillating Triton.
(§5) The result is expressed directly as the 50% inhibitory concentration (IC50), that is to say as the concentration of product studied, expressed in nM, necessary to displace 50% of the specific radioactivity fixed to the receptor studied.

[4] = target: T2, Endothelin A receptor (Rattus norvegicus, UniProt P26684); experiment: Study of the affinity for the endothelin A receptor (125I endothelin displacement, rat heart ventricle membranes); type: binding; conditions: rat heart (ventricles) membranes, 25° C., 60 minutes
T2 construct: A membrane preparation is prepared from the heart (ventricles) of a rat; from tissue; host or cells: rat heart ventricles (membrane preparation)
T2 sequence (P26684 21-426): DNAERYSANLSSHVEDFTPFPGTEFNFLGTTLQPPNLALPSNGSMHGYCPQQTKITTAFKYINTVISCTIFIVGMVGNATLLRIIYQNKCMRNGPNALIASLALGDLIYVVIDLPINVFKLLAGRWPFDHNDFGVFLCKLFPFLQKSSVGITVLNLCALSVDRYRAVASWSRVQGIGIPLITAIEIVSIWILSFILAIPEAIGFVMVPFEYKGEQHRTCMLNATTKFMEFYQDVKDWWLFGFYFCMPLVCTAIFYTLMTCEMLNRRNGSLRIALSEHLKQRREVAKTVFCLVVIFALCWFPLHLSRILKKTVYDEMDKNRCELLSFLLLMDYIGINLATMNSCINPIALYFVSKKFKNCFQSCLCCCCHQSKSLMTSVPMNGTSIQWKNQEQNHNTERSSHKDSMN
Experimental: 1) Study of the Affinity for the Endothelin a Receptor
A membrane preparation is prepared from the heart (ventricles) of a rat. The tissue is ground up in a POLYTRON in a 50 mM Tris buffer pH=7.4.
as §1, §2
as §3, with “[…]” for “3×10^-5 M”
as §4, §5

[5] = test system: endothelin (ET1); experiment: Protection against sudden death induced by IV injection of endothelin (ET1) in a female mouse; type: in vivo
Experimental: 5) Protection Against Sudden Death Induced by IV Injection of Endothelin (ET1) in a Female Mouse
A lethal dose of ET1 (10 nmole/kg IV) is injected into female mice. The solvent or the molecules to be studied are injected 10 minutes before (i.v. route) or 30 minutes before (oral route) the endothelin.
The protection is calculated in the form of ED50 (50% effective dose, or the dose capable of reducing the mortality by 50% relative to the control group).

[6] = 10 min, IV, 10 minutes before ET1 10 nmole/kg IV
[7] = 0.5 h, PO, 30 minutes before ET1 10 nmole/kg IV

`CCCc1nc(SC2CCC(CC(=O)O)CC2)c(C(=O)O)n1Cc1cc2c(cc1Cl)OCO2` (centres unmarked) [Example 2, 4-((4-(carboxymethyl)cyclohexyl)thio)-1-((6-chloro-1,3-benzodioxol-5-yl)methyl)-2-propyl-1H-imidazole-5-carboxylic acid] was tested, and the % inhibition of contraction ([1]; antagonist 0.1 μM, ET 30 nM) was 61%, the % inhibition of contraction ([1]; antagonist 0.1 μM, ET 10 Nm) was 71% and the % inhibition of contraction ([1]; antagonist 1.0 μM, ET 30 nM) was 100%. For the same compound, the % inhibition of contraction ([1]; antagonist 1.0 μM, ET 10 Nm) was 94%, the % inhibition of vasoconstriction ([2]; dose 0.3 mg/kg, ET1 10 μg/kg) was 39% and the % inhibition of vasoconstriction ([2]; dose 0.3 mg/kg, ET1 (3 μg/kg)) was 56%. The % inhibition of vasoconstriction ([2]; dose 1.0 mg/kg, ET1 10 μg/kg) was 65%, the % inhibition of vasoconstriction ([2]; dose 1.0 mg/kg, ET1 (3 μg/kg)) was 60% and the % inhibition of vasoconstriction ([2]; dose 3.0 mg/kg, ET1 10 μg/kg) was 77%. For the same compound, the % inhibition of vasoconstriction ([2]; dose 3.0 mg/kg, ET1 (3 μg/kg)) was 63%, the IC50 [3] was 194 nM and the IC50 [4] was 1.1 nM. For the same compound, the ED50 [5, 6] was 0.8 mg/kg and the ED50 [5, 7] was 1.1 mg/kg.
`O=C(O)CCCCCSc1nc(C2OCCO2)n(Cc2cc3c(cc2Cl)OCO3)c1C(=O)O` [Example 3] was tested, and the % inhibition of vasoconstriction ([2]; dose 1.0 mg/kg, ET1 10 μg/kg) was 53%, the % inhibition of vasoconstriction ([2]; dose 1.0 mg/kg, ET1 (3 μg/kg)) was 52% and the % inhibition of vasoconstriction ([2]; dose 3.0 mg/kg, ET1 10 μg/kg) was 71%. For the same compound, the % inhibition of vasoconstriction ([2]; dose 3.0 mg/kg, ET1 (3 μg/kg)) was 64%, the ED50 [5, 6] was 5 mg/kg and the ED50 [5, 7] was 24.1 mg/kg.
Work on `COCc1nc(SCCCCCC(=O)O)c(C(=O)O)n1Cc1cc2c(cc1Cl)OCO2` [Example 4] yielded a % inhibition of vasoconstriction ([2]; dose 10.0 mg/kg, ET1 10 μg/kg) of 38% and a % inhibition of vasoconstriction ([2]; dose 10.0 mg/kg, ET1 (3 μg/kg)) of 49%.
`CCCc1nc(SCCCCCC(=O)O)c(C(=O)O)n1Cc1cc2c(cc1Cl)OCO2` [Example 6] was tested, and the % inhibition of contraction ([1]; antagonist 0.1 μM, ET 30 nM) was 99%, the % inhibition of contraction ([1]; antagonist 0.1 μM, ET 10 Nm) was 96% and the % inhibition of contraction ([1]; antagonist 1.0 μM, ET 30 nM) was 98%. It also gave a % inhibition of contraction ([1]; antagonist 1.0 μM, ET 10 Nm) of 96%, a % inhibition of vasoconstriction ([2]; dose 1.0 mg/kg, ET1 10 μg/kg) of 33% and a % inhibition of vasoconstriction ([2]; dose 1.0 mg/kg, ET1 (3 μg/kg)) of 42%. For the same compound, the % inhibition of vasoconstriction ([2]; dose 3.0 mg/kg, ET1 10 μg/kg) was 37%, the % inhibition of vasoconstriction ([2]; dose 3.0 mg/kg, ET1 (3 μg/kg)) was 49% and the IC50 [3] was 293 nM. For the same compound, the IC50 [4] was 1.2 nM and the ED50 [5, 6] was 3.9 mg/kg.
`CCCc1nc(SCCCCC(=O)O)c(C(=O)O)n1Cc1cc2c(cc1Cl)OCO2` [Example 8, 4-((4-carboxybutyl)thio)-1-((6-chloro-1,3-benzodioxol-5-yl)methyl)-2-(propyl)-1H-imidazole-5-carboxylic acid] showed a % inhibition of contraction ([1]; antagonist 0.1 μM, ET 30 nM) of 97%, a % inhibition of contraction ([1]; antagonist 0.1 μM, ET 10 Nm) of 97% and a % inhibition of contraction ([1]; antagonist 1.0 μM, ET 30 nM) of 96%. For the same compound, the % inhibition of contraction ([1]; antagonist 1.0 μM, ET 10 Nm) was 95%, the % inhibition of vasoconstriction ([2]; dose 1.0 mg/kg, ET1 10 μg/kg) was 22% and the % inhibition of vasoconstriction ([2]; dose 1.0 mg/kg, ET1 (3 μg/kg)) was 40%. For the same compound, the % inhibition of vasoconstriction ([2]; dose 3.0 mg/kg, ET1 10 μg/kg) was 47%, the % inhibition of vasoconstriction ([2]; dose 3.0 mg/kg, ET1 (3 μg/kg)) was 57% and the IC50 [3] was 600 nM. For the same compound, the IC50 [4] was 1.9 nM and the ED50 [5, 6] was 3.5 mg/kg.
`CCCc1nc(SC2CCC(=CC(=O)O)CC2)c(C(=O)O)n1Cc1cc2c(cc1Cl)OCO2` (centres unmarked) [Example 10, 4-((4-(carboxymethylene)cyclohexyl)thio)-1-((6-chloro 1,3-benzodioxol-5-yl)methyl)-2-propyl-1H-imidazole-5-carboxylic acid] was tested, and the % inhibition of vasoconstriction ([2]; dose 1.0 mg/kg, ET1 10 μg/kg) was 39%, the % inhibition of vasoconstriction ([2]; dose 1.0 mg/kg, ET1 (3 μg/kg)) was 59% and the % inhibition of vasoconstriction ([2]; dose 3.0 mg/kg, ET1 10 μg/kg) was 61%. The % inhibition of vasoconstriction ([2]; dose 3.0 mg/kg, ET1 (3 μg/kg)) was 58%, the IC50 [3] was 210 nM and the IC50 [4] was 1.2 nM. The ED50 [5, 6] was 3.3 mg/kg and the ED50 [5, 7] was 3.2 mg/kg.
`CCCCc1nc(SCCCCCC(=O)O)c(C(=O)O)n1Cc1cc2c(cc1Cl)OCO2` [Example 12, 2-butyl 4-((5-carboxypentyl)thio) 1-((6-chloro 1,3-benzodioxol-5-yl)methyl)-1H-imidazole-5-carboxylic acid] showed a % inhibition of contraction ([1]; antagonist 0.1 μM, ET 30 nM) of 65%, a % inhibition of contraction ([1]; antagonist 0.1 μM, ET 10 Nm) of 88% and a % inhibition of contraction ([1]; antagonist 1.0 μM, ET 30 nM) of 98%. For the same compound, the % inhibition of contraction ([1]; antagonist 1.0 μM, ET 10 Nm) was 98%, the % inhibition of vasoconstriction ([2]; dose 10.0 mg/kg, ET1 10 μg/kg) was 35% and the % inhibition of vasoconstriction ([2]; dose 10.0 mg/kg, ET1 (3 μg/kg)) was 30%. It also gave an IC50 [4] of 1.1 nM.
